Laboratory results taken from patent publication US20100317850A1 (priority 2008, published 2010).

test system: Aβ42 production; assay: Quantification of Aβ peptide in culture of neurons from rat fetus brain (Aβ ELISA); assay type: cell-based; details: Neuron, 72 h; rat primary neuronal culture (cerebral cortex, embryonic day 18 Wistar rats); medium collected three days after addition of the compound; Aβx-42 ELISA; read-out: Aβ42 production reducing effect IC50
Outline: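 Primary cortical neurons from embryonic day 18 Wistar rats were cultured 4 days, then exposed to compound in Neurobasal/B27 without 2-ME, final DMSO ≤1%. After three days, medium was collected and Aβx-42 measured undiluted by sandwich ELISA.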

Row | Structure (SMILES) | IC50
1 | NC1=N[C@@]2(c3cc(NC(=O)c4ccc(OC(F)F)cn4)ccc3F)CCC[C@H]2CS1 (single isomer, unassigned) [Example 175, N-[3-((4aR*,7aS*)-2-amino-4a,5,6,7-tetrahydro-4H-cyclopenta[d][1,3]thiazin-7a-yl)-4-fluorophenyl]-5-difluoromethoxypyridine-2-carboxamide] | 9 nM
2 | NC1=N[C@@]2(c3cc(NC(=O)c4ncc(Cl)cc4Cl)ccc3F)CCOC[C@H]2CS1 (single isomer, unassigned) [Example 185, N-[3-((4aS*,8aS*)-2-amino-4a,5,7,8-tetrahydro-4H-6-oxa-3-thia-1-azanaphthalen-8a-yl)-fluorophenyl]-3,5-dichloropyridine-2-carboxamide] | 10 nM
3 | NC1=N[C@@]2(c3cc(NC(=O)c4ccc(C(F)(F)F)cn4)ccc3F)CCOC[C@H]2CS1 (single isomer, unassigned) [Example 186, N-[3-((4aS*,8aS*)-2-amino-4a,5,7,8-tetrahydro-4H-6-oxa-3-thia-1-azanaphthalen-8a-yl)-fluorophenyl]-5-trifluoromethylpyridine-2-carboxamide] | 30 nM
4 | NC1=N[C@@]2(c3cc(NC(=O)c4cnc(OC(F)F)cn4)ccc3F)C[C@H](F)C[C@H]2CS1 (relative stereo) [Example 98, (+)-N-[3-((4aR*,6R*,7aS*)-2-amino-6-fluoro-4a,5,6,7-tetrahydro-4H-cyclopenta[d][1,3]thiazin-7a-yl)-4-fluorophenyl]-5-difluoromethoxypyrazine-2-carboxamide] | 1 nM
5 | NC1=N[C@@]2(c3cc(NC(=O)c4ccc(OCF)cn4)ccc3F)CCC[C@H]2CS1 (relative stereo) [Example 23, N-[3-((4aR*,7aS*)-2-amino-4a,5,6,7-tetrahydro-4H-cyclopenta[d][1,3]thiazin-7a-yl)-4-fluorophenyl]-5-fluoromethoxypyridine-2-carboxamide] | 10 nM
6 | NC1=N[C@@]2(c3cc(NC(=O)c4ncc(Cl)cc4Cl)ccc3F)CCC[C@H]2CS1 (single isomer, unassigned) [Example 180, N-[3-((4aR*,7aS*)-2-amino-4a,5,6,7-tetrahydro-4H-cyclopenta[d][1,3]thiazin-7a-yl)-4-fluorophenyl]-3,5-dichloropyridine-2-carboxamide] | 3 nM
7 | NC1=N[C@@]2(c3cccc(-c4cncnc4)c3)CN(c3cnccn3)C[C@H]2CS1 [Example 230] | 202 nM
8 | CC[C@H]1OC[C@]2(c3cc(NC(=O)c4ccc(Cl)cn4)ccc3F)N=C(N)SC[C@H]12 (relative stereo) [Example 51, N-[3-((4aS*,5R*,7aS*)-2-amino-5-ethyl-4a,5-dihydro-4H-furo[3,4-d][1,3]thiazin-7a-yl)-4-fluorophenyl]-5-chloropyridine-2-carboxamide] | 1.6 nM
9 | COC[C@H]1OC[C@]2(c3cc(NC(=O)c4ccc(C#N)cn4)ccc3F)N=C(N)SC[C@H]12 [Example 66, N-[3-((4aS,5S,7aS)-2-amino-5-methoxymethyl-4a, 5-dihydro-4H-furo[3,4-d][1,3]thiazin-7a-yl)-4-fluorophenyl]-5-cyanopyridine-2-carboxamide] | 1.3 nM
10 | C[C@H]1OC[C@H]2CSC(N)=N[C@]21c1cc(NC(=O)c2ccc(C#N)cn2)ccc1F [Example 151] | 167 nM
11 | NC1=N[C@@]2(c3cc(NC(=O)c4ncccn4)ccc3F)CCCC[C@H]2CS1 [Example 121] | 263 nM
12 | NC1=N[C@@]2(c3cc(NC(=O)c4ccc5ccccc5n4)ccc3F)CCC[C@H]2CS1 [Example 139] | 169 nM
13 | NC1=N[C@@]2(c3cc(NC(=O)c4cnc(C(F)F)cn4)ccc3F)CO[C@H](CF)[C@H]2CS1 [Example 73, N-[3-((4aS,5S,7aS)-2-amino-5-fluoromethyl-4a,5-dihydro-4H-furo[3,4-d][1,3]thiazin-7a-yl)-4-fluorophenyl]-5-difluoromethylpyrazine-2-carboxamide] | 7 nM
14 | NC1=N[C@@]2(c3cc(NC(=O)c4ccc(OCC(F)F)cn4)ccc3F)CCC[C@H]2CS1 (single isomer, unassigned) [Example 182, N-[3-((4aR*,7aS*)-2-amino-4a,5,6,7-tetrahydro-4H-cyclopenta[d][1,3]thiazin-7a-yl)-4-fluorophenyl]-5-(2,2-difluoroethoxy)-pyridine-2-carboxamide] | 90 nM
15 | NC1=N[C@@]2(c3cc(NC(=O)c4cnc(C(F)F)cn4)ccc3F)C[C@H](CF)OC[C@H]2CS1 [Example 43, N-[3-((4aS,7R,8aS)-2-amino-7-fluoromethyl-4a,5,7,8-tetrahydro-4H-6-oxa-3-thia-1-azanaphthalen-8a-yl)-4-fluorophenyl]-5-difluoromethylpyrazine-2-carboxamide] | 19 nM
16 | COc1cnc(C(=O)Nc2ccc(F)c([C@]34CCCC[C@H]3CSC(N)=N4)c2)cn1 (single isomer, unassigned) [Example 107, N-[3-((4aR*,8aS*)-2-amino-4,4a,5,6,7,8-hexahydrobenzo[d][1,3]thiazin-8a-yl)-4-fluorophenyl]-5-methoxypyrazine-2-carboxamide] | 17 nM
17 | NC1=N[C@@]2(c3cc(NC(=O)c4ccc(-c5nccs5)cn4)ccc3F)CCC[C@H]2CS1 (single isomer, unassigned) [Example 133, N-[3-((4aR*,7aS*)-2-amino-4a,5,6,7-tetrahydro-4H-cyclopenta[d][1,3]thiazin-7a-yl)-4-fluorophenyl]-5-thiazol-2-yl-pyridine-2-carboxamide] | 63 nM
18 | NC1=N[C@@]2(c3cccc(-c4cccnc4F)c3)CN(c3cnccn3)C[C@H]2CS1 [Example 87] | 62 nM
19 | NC1=N[C@@]2(c3cc(NC(=O)c4cnc(OC(F)F)cn4)ccc3F)CCO[C@H](CF)[C@H]2CS1 (relative stereo) [Example 145, N-[3-((4aS*,5S*,8aS*)-2-amino-5-fluoromethyl-4a,5,7,8-tetrahydro-4H-6-oxa-3-thia-1-azanaphthalen-8a-yl)-4-fluorophenyl]-5-difluoromethoxypyrazine-2-carboxamide] | 3 nM
20 | NC1=N[C@@]2(c3cc(NC(=O)c4cnc(OC(F)F)cn4)ccc3F)CCOC[C@H]2CS1 (relative stereo) [Example 29, N-[3-((4aS*,8aS*)-2-amino-4a,5,7,8-tetrahydro-4H-6-oxa-3-thia-1-azanaphthalen-8a-yl)-4-fluorophenyl]-5-difluoromethoxypyrazine-2-carboxamide] | 4 nM
21 | NC1=N[C@@]2(c3cc(NC(=O)c4cnc5ccccc5n4)ccc3F)CCC[C@H]2CS1 [Example 140] | 67 nM
22 | CCO[C@@H]1C[C@H]2CSC(N)=N[C@@]2(c2cc(NC(=O)c3ccc(C#N)cn3)ccc2F)C1 (relative stereo) [Example 90, (+)-N-[3-((4aR*,6R*,7aS*)-2-amino-6-ethoxy-4a,5,6,7-tetrahydro-4H-cyclopenta[d][1,3]thiazin-7a-yl)-4-fluorophenyl]-5-cyanopyridine-2-carboxamide] | 2.5 nM
23 | NC1=N[C@@]2(c3cc(NC(=O)c4ncccc4F)ccc3F)CCCC[C@H]2CS1 [Example 259] | 372 nM
